Measurements taken from patent publication EP0301034B1, “USE OF 1-(3'TRIFLUOROMETHYL 4'-NITROPHENYL) 4,4-DIMETHYL IMIDAZOLINE 2, 5-DIONE IN THE MANUFACTURE OF A MEDICAMENT FOR THE TREATMENT OF HORMONE-DEPENDENT CANCERS OTHER THAN CANCERS OF THE PROSTATE, THE SKIN AND THE COLON” (ROUSSEL-UCLAF, priority 1986, dated 1988).

Key:
[1] = test system: cellules tumorales mammaires MCF-7; experiment: Antiproliferative activity on growth of MCF-7 mammary tumour cells (DNA assay with DABA fluorimetry); type: cell-based; details: 10⁻⁵M; end of experiment J6; SVF medium; inhibition of DNA increase
Protocol: (§1) L'activité de la 1-(3'-trifluorométhyl 4'-nitrophényl) 4,4-diméthyl imidazoline 2,5-dione a été déterminée par la mesure de son activité antiproliférative sur la croissance de cellules tumorales mammaires MCF-7 et T 47-D.
(§2) Les lignées MCF-7 et T 47-D sont maintenues en culture en milieu SVF (1) à 37 °C en atmosphère humide contenant 5% CO₂. Les cellules à subconfluence sont récoltées par trypsination (trypsine 0,05%, EDTA 0,02%) puis rincées par centrifugation douce. Un échantillon des cellules en suspension est compté sur cellule de Malassez.
(§3) Les cellules resuspendues dans le milieu SVF sont ensemencées à raison de 30.000 cellules par puits dans des plaques multipuits (24 puits de 2,5 cm2). […]
(§4) L'ADN est dosé par une méthode fluorimétrique utilisant le DABA (Acide 3,5 diaminobenzoïque) (2) 150 microlitres de DABA sont ajoutés dans chaque puits; les plaques sont alors incubées 45 mn à 56°C, puis 1,5 ml d'HCl 1N sont ajoutés. La fluorescence est mesurée à l'aide de fluorimètre (longueur excitatrice : 400 nm, longueur d'onde d'émission : 500 nm). La quantité d'ADN par puits est évaluée par rapport à une gamme étalon obtenue en traitant dans les mêmes conditions un standard d'ADN du thymus de veau.

[2] = test system: cellules tumorales mammaires T 47-D; experiment: Antiproliferative activity on growth of T 47-D mammary tumour cells (DNA assay with DABA fluorimetry); type: cell-based; details: 10⁻⁵M; end of experiment J12; SVF medium; inhibition of DNA increase
Protocol: as §1, §2, §3, §4

CC1(C)NC(=O)N(c2ccc([N+](=O)[O-])c(C(F)(F)F)c2)C1=O [1-(3'trifluorométhyl 4'-nitrophényl) 4,4-diméthyl imidazoline 2,5-dione]
inhibe la croissance des cellules MCF-7 [1]: 30% | inhibe la croissance des cellules T 47-D [2]: 30%
